# According to patent US20010044449A1, “REMEDIES FOR DRUG ADDICTION” (priority 1997, published 2001):
# Counter-ions that a name gives are not always drawn. Marks after values point to notes of the source that are not given here.
# Assays:
# [1] = tested on: Sprague Dawley strain (SD strain) male rats; assay: Conditioned place preference (CPP) method, psychic dependence induced by morphine; conditions: for Psychic dependence and aversion of compound alone (period in drug- or solvent-conditioned box): compound alone vs solvent control group
# [2] = tested on: Sprague Dawley strain (SD strain) male rats; assay: Conditioned place preference (CPP) method, psychic dependence induced by cocaine
# [3] = tested on: ddY strain male mouse; assay: Naloxone-induced withdrawal syndrome in morphine-dependent mouse (physical dependence); assay type: in vivo; conditions: for Blepharoptosis: numbers of mouse manifesting withdrawal syndrome/numbers of total mouse / Diarrhea: numbers of mouse manifesting withdrawal syndrome/numbers of total mouse / Fore paw tremor: numbers of mouse manifesting withdrawal syndrome/numbers of total mouse / Jumping: numbers of mouse manifesting withdrawal syndrome/numbers of total mouse / Rearing: numbers of mouse manifesting withdrawal syndrome/numbers of total mouse / Wobbling: numbers of mouse manifesting withdrawal syndrome/numbers of total mouse: naloxone 3 mg/kg
# [4] = tested on: rats with nicotine dependence; conditions: Malin et al. 1993; cited from earlier work
# [5] = tested on: Rats; assay: Cocaine drug discrimination test (feeding behavior with lever pressing); assay type: in vivo, rat
# [6] = tested on: SD strain male rats; assay: Mecamylamine-induced nicotine withdrawal aversion (CPP operant boxes); assay type: in vivo, rat
# Protocol: Animals used were SD strain male rats in this experiment. Experiments used were CPP operant boxes. Experiments were performed by using an aversive model in a nicotine withdrawal syndrome induced by mecamylamine, that is, a nicotine receptor antagonist. (Tsutomu Suzuki, Molecular Medicine, 32, 140 (1995); Suzuki, T. et al., Eur. J. Pharm., 314, 281 (1996); Maldonado, R. et al., J. Pharmacol. Exp. Ther., 261, 669 (1992)). Mini-osmotic pump (Alzet 2001) injected with nicotine (1 μl/hr, for seven days) was implanted under dorsal skin of the rats. An aqueous solution at a concentration of 121.4 mg/ ml was prepared so that a nicotine dose was adjusted to 10 mg/kg/day. Then, the aqueous solution was filled into the mini-osmotic pump. The rats were given conditioning training by the following counter-balance method. In the morning of the seventh day after the implantation of the mini-osmotic pump, mecamylamine (1 mg/ml), that is, nicotine receptor antagonist or physiological saline was subcutaneously injected. Then, the rats were placed in one compartment for 60 minutes. […] The periods in which the rats remained in each compartment colored white or black were measured for 15 minutes.
# [7] = tested on: dopamine release in the nucleus accumbens; assay: High K+ stimulated dopamine release from nucleus accumbens slices (HPLC-ECD); assay type: cell-based; conditions: rat nucleus accumbens slices, 20 mM high K+ stimulation; FIG. 11
# [8] = tested on: chronic smokers; conditions: for three hours, double blind and cross-over test vs placebo; Karras et al. 1980; cited from earlier work
# [9] = morphine 3 mg/kg s.c. in combination with compound 0.1 mg/kg s.c., FIGS. 1 and 2
# [10] = cocaine 10 mg/kg i.p. in combination with compound 0.1 mg/kg s.c., FIGS. 5 and 6
# [11] = Compound 3 0.003 mg/kg s.c. with morphine
# [12] = Compound 3 0.01 mg/kg s.c. with morphine
# [13] = Compound 3 0.03 mg/kg s.c. with morphine
molecule,measurement,setting,value
"CN(C(=O)C#Cc1ccc(C(F)(F)F)cc1)[C@@H]1CC[C@@]2(O)[C@H]3Cc4ccc(O)c5c4[C@@]2(CCN3CC2CC2)[C@H]1O5.O=C(O)/C=C\C(=O)O [Compound 1, 17-(cyclopropylmethyl)-3,14β-dihydroxy-4,5α-epoxy-6β-[N-methyl-3-(4-trifluoromethylphenyl)propiolamide] morphinan maleate]",Psychic dependence and aversion of compound alone (period in drug- or solvent-conditioned box),[1],did not develop psychic dependence and aversion
same,Development of drug dependence caused by morphine (period rats remained in drug-conditioned box),[1]; [9],inhibited the development of drug dependence caused by morphine
same,Development of drug dependence induced by cocaine (period rats remained in drug-conditioned box),"[2]; cocaine 4 mg/kg i.p. in combination with Compound 1 0.2 mg/kg i.p., FIG. 7",inhibited the development of drug dependence induced by cocaine
same,Psychic dependence and aversion of compound alone (period in drug- or solvent-conditioned box),[2],did not produce psychic dependence and aversion
"17-(cyclopropylmethyl)-3,14β-dihydroxy-4,5α-epoxy-6β-[N-methyl-trans-3-(methoxycinnamide) morphinan tartrate [Compound 5]",Development of drug dependence induced by cocaine (period rats remained in drug-conditioned box),[2]; [10],inhibited the development of drug dependence induced by cocaine
same,Psychic dependence and aversion of compound alone (period in drug- or solvent-conditioned box),[2],did not produce psychic dependence and aversion
"Cc1cccc(C#CC(=O)N(C)[C@@H]2CC[C@@]3(O)[C@H]4Cc5ccc(O)c6c5[C@@]3(CCN4CC3CC3)[C@H]2O6)c1 [Compound 4, 17-(cyclopropylmethyl)-3,14β-dihydroxy-4,5α-epoxy-6β-[N-methyl-3-(3-methylphenyl)propiolamide] morphinan hydrochloride]",Development of drug dependence induced by cocaine (period rats remained in drug-conditioned box),[2]; [10],inhibited the development of drug dependence induced by cocaine
same,Psychic dependence and aversion of compound alone (period in drug- or solvent-conditioned box),[2],did not produce psychic dependence and aversion
"CN1CC[C@]23c4c5ccc(O)c4O[C@H]2[C@@H](O)C=C[C@H]3[C@H]1C5 [morphine, reference compound]",Withdrawal syndrome after naloxone administration,"[3]; morphine alone 8 to 45 mg/kg s.c. twice a day for five days, naloxone 3 mg/kg s.c.",withdrawal syndrome was recognized
same,Withdrawal syndrome in rats with nicotine dependence,[4],inhibits the withdrawal syndrome
"CN(C(=O)/C=C/c1ccoc1)[C@@H]1CC[C@@]2(O)[C@H]3Cc4ccc(O)c5c4[C@@]2(CCN3CC2CC2)[C@H]1O5 [Compound 3, 17-(cyclopropylmethyl)-3,14β-dihydroxy-4,5α-epoxy-6β-[N-methyl-trans-3-(3-furyl)acrylamide] morphinan hydrochloride]","Incidence rates of jumping, shaking, and diarrhea","[3]; 0.03 mg/kg, compared with morphine alone group",significantly decreased
same,Body weight reduction (withdrawal),"[3]; 0.01 or 0.03 mg/kg, compared with morphine alone group, FIG. 4",significant suppression of body weight reduction
same,Blepharoptosis: numbers of mouse manifesting withdrawal syndrome/numbers of total mouse,[3]; [11],10/10
same,Diarrhea: numbers of mouse manifesting withdrawal syndrome/numbers of total mouse,[3]; [11],7/10
same,Fore paw tremor: numbers of mouse manifesting withdrawal syndrome/numbers of total mouse,[3]; [11],9/10
same,Jumping: numbers of mouse manifesting withdrawal syndrome/numbers of total mouse,[3]; [11],3/10
same,Rearing: numbers of mouse manifesting withdrawal syndrome/numbers of total mouse,[3]; [11],10/10
same,Wobbling: numbers of mouse manifesting withdrawal syndrome/numbers of total mouse,[3]; [11],7/10
same,Blepharoptosis: numbers of mouse manifesting withdrawal syndrome/numbers of total mouse,[3]; [12],10/10
same,Diarrhea: numbers of mouse manifesting withdrawal syndrome/numbers of total mouse,[3]; [12],6/10
same,Fore paw tremor: numbers of mouse manifesting withdrawal syndrome/numbers of total mouse,[3]; [12],10/10
same,Jumping: numbers of mouse manifesting withdrawal syndrome/numbers of total mouse,[3]; [12],5/10
same,Rearing: numbers of mouse manifesting withdrawal syndrome/numbers of total mouse,[3]; [12],7/10
same,Wobbling: numbers of mouse manifesting withdrawal syndrome/numbers of total mouse,[3]; [12],5/10
same,Blepharoptosis: numbers of mouse manifesting withdrawal syndrome/numbers of total mouse,[3]; [13],10/10
same,Diarrhea: numbers of mouse manifesting withdrawal syndrome/numbers of total mouse,[3]; [13],3/10*
same,Fore paw tremor: numbers of mouse manifesting withdrawal syndrome/numbers of total mouse,[3]; [13],7/10
same,Jumping: numbers of mouse manifesting withdrawal syndrome/numbers of total mouse,[3]; [13],3/10*
same,Rearing: numbers of mouse manifesting withdrawal syndrome/numbers of total mouse,[3]; [13],8/10
same,Wobbling: numbers of mouse manifesting withdrawal syndrome/numbers of total mouse,[3]; [13],3/10*
same,Naloxone-induced withdrawal syndrome,"[3]; simultaneous administration with morphine, 0.003-0.03 mg/kg s.c.",relieved by the simultaneous administration of Compound 3 in a dose-dependent manner
same,Rates of feeding behavior with lever pressing (cocaine discrimination),"[5]; Compound 3 10 μg/kg with cocaine 1.25, 2.5, or 5 mg/kg vs saline + cocaine, FIG. 8",significantly decreased
same,Inhibitory effect of cocaine discrimination,"[5]; Compound 3 20 μg/kg with cocaine, compared with 10 μg/kg",enhanced
same,Psychic dependence and aversion of compound alone (period in drug- or solvent-conditioned box),[1],did not produce psychic dependence and aversion
same,Development of drug dependence caused by morphine (period rats remained in drug-conditioned box),"[1]; morphine 5 mg/kg s.c. in combination with Compound 3 0.1 or 0.03 mg/kg s.c., FIG. 3",inhibited the development of drug dependence caused by morphine
same,Aversive effect induced by mecamylamine (nicotine withdrawal),[6]; pretreatment 30 μg/kg vs physiological saline pretreatment,significantly inhibited the aversive effect
same,Aversive effect induced by mecamylamine (nicotine withdrawal),"[6]; pretreatment 10 or 30 μg/kg s.c., 30 minutes before mecamylamine, FIG. 10",inhibited by the pretreatment with Compound 3 (10 or 30 μg/kg) in a dose dependent manner
same,Dopamine release in the nucleus accumbens,[7],inhibited dopamine release in the nucleus accumbens
C=CCN1CC[C@]23c4c5ccc(O)c4O[C@H]2C(=O)CC[C@@]3(O)[C@H]1C5 [naloxone],Withdrawal syndrome in rats with nicotine dependence,[4],accelerates a withdrawal syndrome
same,Intake of tobacco of chronic smokers,[8],effective for a reduction in intake of tobacco
"Oc1ccc2c3c1O[C@H]1c4[nH]c5c(c4C[C@@]4(O)[C@@H](C2)N(CC2CC2)CC[C@]314)C[C@@]1(O)[C@H]2Cc3ccc(O)c4c3[C@@]1(CCN2CC1CC1)[C@H]5O4 [nor-BNI, norbinaltorphimine, reference compound]",Antagonism of the inhibitory effect of cocaine discrimination of Compound 3,"[5]; nor-BNI pretreatment, Compound 3 0.02 mg/kg + cocaine, FIG. 9",antagonized
same,Antagonism of the inhibitory effect caused by Compound 3,"[1]; pretreatment 3 mg/kg, morphine 5 mg/kg s.c. + Compound 3 0.03 mg/kg s.c.",significantly antagonized
"Cc1cccc(/C=C/C(=O)N(C)[C@@H]2CC[C@@]3(O)[C@H]4Cc5ccc(O)c6c5[C@@]3(CCN4CC3CC3)[C@H]2O6)c1 [Compound 2, 17-(cyclopropylmethyl)-3,14β-dihydroxy-4,5α-epoxy-6β-(N-methyl-3-methylcinnamide) morphinan hydrochloride]",Psychic dependence and aversion of compound alone (period in drug- or solvent-conditioned box),[1],did not develop psychic dependence and aversion
same,Development of drug dependence caused by morphine (period rats remained in drug-conditioned box),[1]; [9],inhibited the development of drug dependence caused by morphine
